The test system of the test is AMP-activated protein kinase (AMPK). The test is described as follows: ADP Quest assay for AMPK activators. The test is classed as biochemical. Also noted: key: fold AMPK activation with vs without activator at 30 µM. Particulars: fold of AMPK activation to phosphorylate SAMS peptide without and with an activator at the concentration of 30 µM. As to the method: ADP Quest™ Assay for AMPK Activators
This method evaluates AMP-activated protein kinase (AMPK) activity through detecting the accumulation of ADP product using an ADP Quest kit and determining the E30 values of the small molecular AMPK activators. ADP Quest kit (DiscoveRx, Fremont, Calif.) is stored at −20° C. before use. Before an experiment, thaw the kit (include assay buffer, ADP standard solution, reagent A and reagent B) and equilibrate to room temperature. Dispense the ADP Quest reagents into single-use aliquots and store at −20° C. The compound concentrations typically range from 0 µM to 100 µM by 2-fold dilution. AMP concentrations range from […] to 1 mM as the reference control. In an assay, thaw and equilibrate the assay buffer, reagent A and reagent B to room temperature for 30 minutes prior to use. Mix ATP, SAMS peptide substrate and compound, and place them into the 384-well assay plate. Add reagent A and B based on the assay kit protocol. Incubate the assay plate at room temperature for 30 minutes after addition the mixture followed by the addition of AMPK protein (Invitrogen, CA) to initiate the AMPK phosphorylation reaction. At the same time, reactions with AMPK activator AMP in the absence of enzyme is included as blank control. The reaction fluorescence signal is monitored and recorded on Envision in kinetic mode with the excitation wavelength of 530 nm and emission wavelength of 590 nm. The E30 value, defined as the fold of AMPK activation to phosphorylate SAMS peptide without and with an activator at the concentration of 30 µM, is calculated and analyzed using Prism 5.0.
The molecule `CC(C)(Nc1cccc(C2Nc3ccc(C(=O)NS(C)(=O)=O)cc3CC2(C)C)c1)C(=O)O` (centres unmarked) [Example 28, 2-[3-(6-Methanesulfonylaminocarbonyl-3,3-dimethyl-1,2,3,4-tetrahydro-quinolin-2-yl)-phenylamino]-2-methyl-propionic acid] registered an E30 of 2.5.

For the molecule `CC(C)(CO)Nc1cccc(C2Nc3ccc(C(=O)O)cc3CC2(C)C)c1` (centres unmarked) [Example 29, 2-[3-(2-Hydroxy-1,1-dimethyl-ethylamino)-phenyl]-3,3-dimethyl-1,2,3,4-tetrahydro-quinoline-6-carboxylic acid], the E30 amounted to 1.34.

For `CN(C)C(=O)N(C)c1cccc(C2Nc3ccc(C(=O)O)cc3CC2(C)C)c1` (centres unmarked) [Example 30, 3,3-Dimethyl-2-[3-(trimethyl-ureido)-phenyl]-1,2,3,4-tetrahydro-quinoline-6-carboxylic acid], the E30 turned out to be 1.45.

Take `CN(C(N)=O)c1cccc(C2Nc3ccc(C(=O)O)cc3CC2(C)C)c1` (centres unmarked) [Example 31, 3,3-Dimethyl-2-[3-(1-methyl-ureido)-phenyl]-1,2,3,4-tetrahydro-quinoline-6-carboxylic acid]: the E30 is listed as 1.33.

For the molecule `CC(C)N(C(N)=O)c1cccc(C2Nc3ccc(C(=O)O)cc3CC2(C)C)c1` (centres unmarked) [Example 32, 2-[3-(1-Isopropyl-ureido)-phenyl]-3,3-dimethyl-1,2,3,4-tetrahydro-quinoline-6-carboxylic acid], the E30 is 1.38.

In turn, `CC1(C)Cc2cc(C(=O)O)ccc2NC1c1cccc(N2C(=O)OCC2(C)C)c1` (centres unmarked) [Example 34, 2-[3-(4,4-Dimethyl-2-oxo-oxazolidine-3-yl)-phenyl]-3,3-dimethyl-1,2,3,4-tetrahydro-quinoline-6-carboxylic acid] returned an E30 of 1.15.

With `CC1(C)Cc2cc(C(=O)O)ccc2NC1c1cccc(NC(=O)N2CCCC2)c1` (centres unmarked) [Example 35, 3,3-Dimethyl-2-{3-[(pyrrolidine-1-carbonyl)-amino]-phenyl}-1,2,3,4-tetrahydro-quinoline-6-carboxylic acid], the E30 worked out at 1.41.

With `CCN(CC)C(=O)Nc1cccc(C2Nc3ccc(C(=O)O)cc3CC2(C)C)c1` (centres unmarked) [Example 36, 2-[3-(3,3-Diethyl-ureido)-phenyl}-3,3-dimethyl-1,2,3,4-tetrahydro-quinoline-6-carboxylic acid], the E30 came out at 1.37.

As to `CC(C)(Nc1cccc(C2Nc3ccc(Cl)cc3CC2(C)C)c1)C(=O)O` (centres unmarked) [Example 37, 2-[3-(6-Chloro-3,3-dimethyl-1,2,3,4-tetrahydro-quinolin-2-yl)-phenylamino]-2-methyl-propionic acid], the E30 is reported as 2.19.

`CC(C)(Nc1cccc(C2Nc3ccc(C#N)cc3CC2(C)C)c1)C(=O)O` (centres unmarked) [Example 38, 2-[3-(6-Cyano-3,3-dimethyl-1,2,3,4-tetrahydro-quinolin-2-yl)-phenylamino]-2-methyl-propionic acid] yielded an E30 of 2.12.

`CNC(=O)C(C)(C)Nc1cccc(C2Nc3ccc(C(=O)NS(C)(=O)=O)cc3CC2(C)C)c1` (centres unmarked) [Example 39, 2-[3-(6-Methanesulfonylaminocarbonyl-3,3-dimethyl-1,2,3,4-tetrahydro-quinolin-2-yl)-phenylamino]-2,N-dimethyl-propionamide] registered an E30 of 1.36.

For `CN(C)C(=O)C(C)(C)Nc1cccc(C2Nc3ccc(C(=O)O)cc3CC2(C)C)c1` (centres unmarked) [Example 40, 2-[3-(1-Dimethylcarbamoyl-1-methyl-ethylamino)-phenyl]-3,3-dimethyl-1,2,3,4-tetrahydro-quinoline-6-carboxylic acid], the E30 came out at 1.35.

As to `CC(C)(Nc1cccc(C2Nc3ccc(C(=O)O)cc3CC2(C)C)c1)C(=O)N1CCOCC1` (centres unmarked) [Example 41, 2-[3-(1,1-Dimethyl-2-morpholin-4-yl-2-oxo-ethylamino)-phenyl]-3,3-dimethyl-1,2,3,4-tetrahydro-quinoline-6-carboxylic acid], the E30 is recorded as 1.35.

Consider `CN1CCN(C(=O)C(C)(C)Nc2cccc(C3Nc4ccc(C(=O)O)cc4CC3(C)C)c2)CC1` (centres unmarked) [Example 42, 2-{3-[1,1-Dimethyl-2-(4-methyl-piperazin-1-yl)-2-oxo-ethylamino]-phenyl}-3,3-dimethyl-1,2,3,4-tetrahydro-quinoline-6-carboxylic acid], for which the E30 turned out to be 1.31.

`CC(C)NC(=O)C(C)(C)Nc1cccc(C2Nc3ccc(C(=O)NS(C)(=O)=O)cc3CC2(C)C)c1` (centres unmarked) [Example 43, N-isopropyl-2-[3-(6-methanesulfonylaminocarbonyl-3,3-dimethyl-1,2,3,4-tetrahydro-quinolin-2-yl)-phenylamino]-2-methyl-propionamide] registered an E30 of 1.29.

Molecule `CC1(C)Cc2cc(C(=O)O)ccc2NC1c1cccc(NC2(C(=O)O)CC2)c1` (centres unmarked) [Example 44, 2-[3-(1-Carboxy-cyclopropylamino)-phenyl]-3,3-dimethyl-1,2,3,4-tetrahydro-quinoline-6-carboxylic acid] gave an E30 of 2.67.

Regarding `CC(C)(Nc1cccc(C2Nc3ccc(C(F)(F)F)cc3CC2(C)C)c1)C(=O)O` (centres unmarked) [Example 45, 2-[3-(3,3-Dimethyl-6-trifluoromethyl-1,2,3,4-tetrahydro-quinolin-2-yl)-phenylamino]-2-methyl-propionic acid], the E30 is 2.41.

`CC(C)(C)c1ccc(-c2cncc(C3Nc4ccc(C(=O)O)cc4CC3(C)C)c2)cc1` (centres unmarked) [Example 46, 2-[5-(4-tert-Butyl-phenyl)-pyridin-3-yl]-3,3-dimethyl-1,2,3,4-tetrahydro-quinoline-6-carboxylic acid] had an E30 of 1.46.

For `CNC(=O)C(C)(C)Nc1cccc(C2Nc3ccc(C(=O)NS(=O)(=O)C4CC4)cc3CC2(C)C)c1` (centres unmarked) [Example 47, 2-[3-(6-Cyclopropanesulfonylaminocarbonyl-3,3-dimethyl-1,2,3,4-tetrahydro-quinolin-2-yl)-phenylamino]-2,N-dimethyl-propionamide], the E30 is 1.23.

`CC(C)(Nc1cccc(C2Nc3ccc(S(C)(=O)=O)cc3CC2(C)C)c1)C(=O)O` (centres unmarked) [Example 48, 2-[3-(6-Methanesulfonyl-3,3-dimethyl-1,2,3,4-tetrahydro-quinolin-2-yl)-phenylamino]-2-methyl-propionic acid] showed an E30 of 2.62.

In turn, `CC(C)(C)c1ccc(-c2cc(F)cc(C3Nc4ccc(C(=O)NS(C)(=O)=O)cc4CC3(C)C)c2)cc1` (centres unmarked) [Example 49, N-[2-(4′-tert-Butyl-5-fluoro-biphenyl-3-yl)-3,3-dimethyl-1,2,3,4-tetrahydro-quinoline-6-carbonyl]-methanesulfonamide] gave an E30 of 2.25.

As to `CN(C)c1cc(F)cc(C2Nc3ccc(C(=O)NS(C)(=O)=O)cc3CC2(C)C)c1` (centres unmarked) [Example 50, N-[2-(3-Dimethylamino-5-fluoro-phenyl)-3,3-dimethyl-1,2,3,4-tetrahydro-quinoline-6-carbonyl]-methanesulfonamide], the E30 is listed as 1.61.

Take `CC1(C)Cc2cc(C(=O)O)ccc2NC1c1cc(F)cc(-c2ccc(C#N)cc2)c1` (centres unmarked) [Example 51, 2-(4′-Cyano-5-fluoro-biphenyl-3-yl)-3,3-dimethyl-1,2,3,4-tetrahydro-quinoline-6-carboxylic acid]: the E30 came out at 1.42.

Molecule `CC1(C)Cc2cc(C(=O)NS(=O)(=O)C3CC3)ccc2NC1c1cc(F)cc(F)c1` (centres unmarked) [Example 52, Cyclopropanesulfonic acid [2-(3,5-difluoro-phenyl)-3,3-dimethyl-1,2,3,4-tetrahydro-quinoline-6-carbonyl]-amide] showed an E30 of 1.35.

For `CC1(C)Cc2cc(C(=O)O)ccc2NC1c1cc(N2CCOCC2)ccc1F` (centres unmarked) [Example 53, 2-(2-Fluoro-5-morpholin-4-yl-phenyl)-3,3-dimethyl-1,2,3,4-tetrahydro-quinoline-6-carboxylic acid], the E30 was 1.33.

In turn, `CC1(C)Cc2cc(C(=O)NS(=O)(=O)C3CC3)ccc2NC1c1cc(N2CCOCC2)ccc1F` (centres unmarked) [Example 54, Cyclopropanesulfonic acid [2-(2-fluoro-5-morpholin-4-yl-phenyl)-3,3-dimethyl-1,2,3,4-tetrahydro-quinoline-6-carbonyl]-amide] showed an E30 of 1.28.

`CC1(C)Cc2cc(C(=O)O)ccc2NC1c1cc(Cl)cc(N2CCOCC2)c1` (centres unmarked) [Example 55, 2-(3-Chloro-5-morpholin-4-yl-phenyl)-3,3-dimethyl-1,2,3,4-tetrahydro-quinoline-6-carboxylic acid] had an E30 of 1.28.

The molecule `CC1(C)Cc2cc(C(=O)NS(=O)(=O)C3CC3)ccc2NC1c1cc(Cl)cc(N2CCOCC2)c1` (centres unmarked) [Example 56, Cyclopropanesulfonic acid [2-(3-chloro-5-morpholin-4-yl-phenyl)-3,3-dimethyl-1,2,3,4-tetrahydro-quinoline-6-carbonyl]-amide] yielded an E30 of 1.26.

The molecule `CC1(C)Cc2cc(C(=O)NS(C)(=O)=O)ccc2NC1c1cc(Cl)cc(N2CCOCC2)c1` (centres unmarked) [Example 57, N-[2-(3-Chloro-5-morpholin-4-yl-phenyl)-3,3-dimethyl-1,2,3,4-tetrahydro-quinoline-6-carbonyl]-methanesulfonamide] displayed an E30 of 1.25.

The values are drawn from patent US8586747B2, “3,3-dimethyl tetrahydroquinoline derivatives” (Hoffmann-La Roche Inc., priority 2010, dated 2013).
